Data taken from US20200000775A1, “ATTENUATION OF NEUROPATHIC PAIN AFTER SPINAL CORD INJURY” (University of Kentucky Research Foundation, priority 2018, published 2020).

Columns and labels:
[1] = cited from earlier work
[2] = rats, pigs, sheep, dogs or humans; cited from earlier work
[3] = tested on: rat excitotoxic SCI pain model; assay: Spontaneous pain-related excessive grooming behavior after excitotoxic SCI (intraspinal QUIS); assay type: in vivo
Excerpt: Male Sprague-Dawley (SD) adult rats at 3 months, weighing 220-250 g, were used (Charles River, Indianapolis, Ind.). Rats were kept under standard housing conditions (12:12 light and dark cycle) with food and water ad libitum for at least 1 week following arrival in an enclosed, pathogen-free animal facility. All experimental procedures were approved and carried out in accordance with the Guidelines of the US National Institutes of Health and Institutional Animal Care and Use Committee (IACUC) of the University of Kentucky.
Excitotoxic SCI was produced by intraspinal injection of the glutamatergic AMPA/metabotropic receptor agonist quisqualic acid (QUIS) as previously described. Briefly, rats were anesthetized with a mixture of ketamine and xylazine (intraperitoneally, IP). Animals were placed in a stereotaxic unit and the spinal column immobilized with a vertebral clamp. One injection window for intraspinal injection was made by laminectomy between spinal segments T12-L1. Injections of 125 mM QUIS was made unilaterally at three levels of the cord by convection enhanced delivery. Injections, spaced 0.3 mm apart, were made at a depth of 1000 μm below the surface in segments T12-L1 between the dorsal root entry zone and the dorsal vein. These coordinates place injections in the center of the gray matter between spinal laminae IV-VI. The total volume of QUIS injected was 1.2 μl (0.4 μl each site, delivered over 4 minutes). Following injections, muscles were sutured over the laminectomy site, and the skin closed with wound clips.
(§1) Twenty-four male SD rats were randomly assigned to three groups: (A) FluBZ treatment plus intraspinal injection of QUIS (n=10); (B) vehicle treatment plus intraspinal injection of QUIS (n=10); and (C) Sham operation (intraspinal injection of saline, n=4). Assessment of excessive grooming behavior was used to evaluate the effects of FluBZ or vehicle on the development of the spontaneous pain behavior following excitotoxic SCI. The survival time of animals consisted of a period of 4 weeks or until tissue damage progressed beyond the superficial layers of skin, at which time (<4 weeks) animals were euthanized. […]
Assessment of the spontaneous pain-related excessive grooming behavior was performed as described in previous studies. […] Quantitative analysis of spontaneous excessive grooming pain behavior consisted of the incidence, onset time, mean area of skin damage, and severity of overgrooming pain behaviors for all animals as previously described.
Data related to the onset time, area of grooming-induced skin damage, and immunofluorescent number of object and mean intensity are expressed as mean ±standard error of mean (SEM) and analyzed by using a commercially available computer program (StatView; SAS Institute, Inc, Cary, N.C.). […]

[4] = tested on: acetylated α-tubulin; assay: Immunofluorescence of acetylated α-tubulin in spinal dorsal horn after excitotoxic SCI; assay type: in vivo, rat; details: IP for 7 days from 3 h post-QUIS; lesion site, 28 days after injury; vs vehicle, p<0.001
Excerpt: as §1, with “euthanized. FluBZ (10 mg/kg/day) or vehicle was intraperitoneally injected once daily for a period of 7 days post-injection of QUIS. The FluBZ or vehicle treatment began at 3 h post-QUIS injection. FluBZ (Sigma) was dissolved in 0.9% saline plus 0.01% Tween 80 (Vehicle).” for “euthanized.”
(§2) The stereological analysis of image data within dorsal horn of spinal cord in sham or QUIS-injured animals with treatment of FluBZ or vehicle will be performed using NIS-Elements AR program. Serial double-labeled immunofluorescent signal images of spinal cord sections at lesion epicenter and 2 mm rostral and caudal to the lesion site were analyzed using methods of Binary Layers and Automated Measurement Results. […]

[5] = tested on: α-tubulin N-acetyltransferase ATAT1/MEC-17; assay: Immunofluorescence of α-tubulin acetyltransferase MEC-17 in spinal dorsal horn after excitotoxic SCI; assay type: in vivo, rat; details: IP for 7 days from 3 h post-QUIS; lesion site, 28 days after injury; vs vehicle, p<0.01
Excerpt: as §1, with “euthanized. FluBZ (10 mg/kg/day) or vehicle was intraperitoneally injected once daily for a period of 7 days post-injection of QUIS. The FluBZ or vehicle treatment began at 3 h post-QUIS injection. FluBZ (Sigma) was dissolved in 0.9% saline plus 0.01% Tween 80 (Vehicle).” for “euthanized.”
as §2

[6] = tested on: endosomal EEA1-NR1; assay: Immunofluorescence of endosomal EEA1-NMDAR1 (NR1) dual signal in spinal dorsal horn after excitotoxic SCI; assay type: in vivo, rat; details: post-treatment, 28 days post-excitotoxic injury; vs vehicle, p<0.001
Excerpt: as §1, with “euthanized. FluBZ (10 mg/kg/day) or vehicle was intraperitoneally injected once daily for a period of 7 days post-injection of QUIS. The FluBZ or vehicle treatment began at 3 h post-QUIS injection. FluBZ (Sigma) was dissolved in 0.9% saline plus 0.01% Tween 80 (Vehicle).” for “euthanized.”
as §2

[7] = tested on: endosomal EEA1-pERK1/2; assay: Immunofluorescence of endosomal EEA1-pERK1/2 dual signal in spinal dorsal horn after excitotoxic SCI; assay type: in vivo, rat; details: IP treatment, 28 days post-injury; vs vehicle, p<0.001
Excerpt: as §1, with “euthanized. FluBZ (10 mg/kg/day) or vehicle was intraperitoneally injected once daily for a period of 7 days post-injection of QUIS. The FluBZ or vehicle treatment began at 3 h post-QUIS injection. FluBZ (Sigma) was dissolved in 0.9% saline plus 0.01% Tween 80 (Vehicle).” for “euthanized.”
as §2

[8] = tested on: mitochondrial cyclin B1; assay: Immunofluorescence of mitochondrial cyclin B1 (cyclin B1/VDAC1 dual signal) in spinal dorsal horn after excitotoxic SCI; assay type: in vivo, rat; details: 10 mg/kg/day for 7 days post-injury; 28 days following injury; vs vehicle, p<0.001
Excerpt: as §1, with “euthanized. FluBZ (10 mg/kg/day) or vehicle was intraperitoneally injected once daily for a period of 7 days post-injection of QUIS. The FluBZ or vehicle treatment began at 3 h post-QUIS injection. FluBZ (Sigma) was dissolved in 0.9% saline plus 0.01% Tween 80 (Vehicle).” for “euthanized.”
as §2

Structure (SMILES)	solubility in aqueous systems [1]	bioavailability after oral treatment [2]	incidence of pain behavior ([3]; 10 mg/kg/day IP for 7 days, starting 3 h post-injury, vehicle-treated control 75%) [%]	onset of excessive grooming pain behaviors ([3]; 10 mg/kg/day IP once daily for 7 days, starting 3 h post-QUIS, vehicle average onset 11 days, n=10)	size of the grooming area (skin damage) ([3]; 10 mg/kg/day for one week post-excitotoxic injury, vs vehicle, p<0.001)	severity of grooming class ([3]; 10 mg/kg/day for one week post-excitotoxic injury, vs vehicle, p<0.01)	α-tubulin acetylation in the spinal dorsal horn [4]	expression of acetyltransferase MEC-17 in the spinal dorsal horn [5]	endosomal EEA1-NR1 fluorescent signals in the dorsal horn [6]	endosomal EEA1-pERK1/2 fluorescent binary number object, binary area fraction, binary area, and mean intensity in the dorsal horn [7]	mitochondrial cyclin b1 activity in the dorsal horn [8]
COC(=O)Nc1nc2ccc(Sc3ccccc3)cc2[nH]1 [FBZ, fenbendazole]	poorly soluble	very low									
COC(=O)Nc1nc2cc(C(=O)c3ccc(F)cc3)ccc2[nH]1 [FluBZ, Flubendazole]	poorly soluble	very low	40	19 days after excitotoxic injury	significant reduction	significant reduction	significantly decreased	significantly decreased	significantly suppressed	significantly inhibited	significantly reduced
